Counter-ions that a name gives are not always drawn.
Assays:
N2a695 cells = assay: Screening of Aβ production in N2a695 cells (Aβ ELISA of cell supernatants); format: cell-based
Description: N2a695 were cultured in 1:1 OptiMem Reduced Serum Media (Life Technologies): Dulbecco’s Modified Eagle Medium ([+] 4.5 g/L D-glucose [+] L-Glutamine; [−] Sodium pyruvate (Life Technologies) supplemented with 5% fetal bovine serum, 0.4% Penstrep and 0.4% Geneticin and incubated at 37°C in 5% CO2. Antibodies were obtained from The Laboratory of Molecular and Cellular Neuroscience at The Rockefeller University. Human Aβ40 and Aβ42 ELISA plates (Life Technologies) and Plus MSD (Mesoscale Discovery) plates for Aβ Peptide (Aβ38, Aβ40 and Aβ42) Panel 1 (6E10) Kit (Catalog number K15200G) were obtained from Thermo Fisher, Life Technologies and Meso Scale Discovery.
N2a695 cells were used to screen all new compounds and in the follow-up studies with compounds found active in the preliminary screen. In a typical experiment, 6-well tissue culture plates (Corning) were seeded at 4.0 × 10^5–4.5 × 10^5 N2a695 cells/mL, 2 mL/well for overnight incubation. When cells were >95% confluent, media were exchanged with fresh media containing 10 µM solutions of compounds or DMSO carrier alone and cells were incubated at 37°C in 5% CO2 for 5 h. Culture media were collected and soluble Aβ concentrations in the media were determined by ELISA or MSD plates for human Aβ peptides as per manufacturer instructions. Signals for Aβ were measured using Perkin Elmer Envision and SQ120 MSD ELISA reader. Follow-up studies with N2a695 cells were performed similarly.
Specifically, we exposed N2a695 cells to increasing concentrations of each compound and measured the production of Aβ38, 40, and 42. […] Remarkably, this occurs for all Aβ peptides tested shorter than 40 amino acids (Figure 2C). Moreover, for some compounds that modulate γ-secretase activity most conspicuously at 5 μM, this effect vanishes at 10 μM, relative to controls (Figure 2B, C). […]

BACE1 = system: BACE1; design: method as in Netzer et al., 2017; conditions: two in vitro BACE1 assays, concentrations up to 100 μM; ref Netzer et al., 2017; cited from earlier work
Abl1 kinase = target: T1, Abl1 kinase (Homo sapiens, UniProt P00519); assay: In vitro kinase activity assay (split-luciferase, Luceome); format: biochemical; conditions: read-out: IC50, Abl kinase
T1 sequence (P00519 242-493 limits assumed): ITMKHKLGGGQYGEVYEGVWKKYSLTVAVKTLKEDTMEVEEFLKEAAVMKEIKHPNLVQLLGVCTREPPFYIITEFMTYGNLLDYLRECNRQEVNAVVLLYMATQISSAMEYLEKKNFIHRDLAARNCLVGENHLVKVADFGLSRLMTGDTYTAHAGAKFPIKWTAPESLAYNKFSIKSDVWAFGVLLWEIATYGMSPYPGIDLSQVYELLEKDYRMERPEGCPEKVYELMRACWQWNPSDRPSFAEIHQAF
Description: The assay was performed by Luceome Biotechnologies, LLC. Typically, 10 mM stock solutions of the compounds were diluted in DMSO to a concentration of 250 μM. Prior to initiating the assay, all test compounds were evaluated for false positive against split-luciferase ([Jester et al., 2010]). For kinase assays, each Cfluc-Kinase was translated along with Fos-Nfluc using a cell-free system (rabbit reticulocyte lysate) at 30°C for 90 min 24 μL aliquot of this lysate containing either 1 μL of DMSO (for no-inhibitor control) or compound solution in DMSO (10 μM final concentration) was incubated for 30 min at room temperature followed by 1 h in presence of a kinase specific probe. 80 μL of luciferin assay reagent was added to each solution and luminescence was immediately measured on a luminometer. The percent Inhibition was calculated using the following equation: % Inhibition = (ALUcontrol–ALUsamplex 100)/ALUcontrol.

[1] = system: β- and γ-cleavages of APP; assay: Aβ in N2a cells transiently transfected with APP-FL or APP99 (APP-βCTF): BACE vs γ-secretase cleavage; format: cell-based; conditions: N2a cells transiently transfected with APP695 (APP-FL) or APP C99, 5 h
Description: To determine effects of compounds on BACE1 vs. GS inhibition, we used N2a cells transiently transfected with full length APP (APP-FL) or with APP99 (APP-βCTF) as described previously ([Netzer et al., 2017]; [Sun et al., 2019]). After 48 h, media were removed and fresh media containing compound 1a and analogs were added. Following 5 h of incubation, cell supernatants were collected, and analyzed using MSD-ELISA for Aβ and sAPPα and western blot for sAPPβ.
We focused on IMTi-1 and its analogs 1d, 1f and 1p. […] To test whether these compounds lower Aβ levels by affecting the BACE and/or γ-secretase cleavages, we transfected wild-type (wt) cells with APP-FL and APP βCTF (C99), respectively, and incubated the cells with IMTi-1 (isomer) and analogs 1d, 1f and 1p. We used BACE inhibitor, MK8931, and γ-secretase inhibitor, DAPT, as controls and performed the experiments and processed the results as described previously ([Sun et al., 2019]).

**Q.** Which “Activity in Aβ production assays” value (N2a695 cells; N2a695 cells) does the source give for `Cc1ccc(NC(=O)c2ccc(CN3CCN(C)CC3)cc2)cc1Nc1nccc(-c2cccnc2)n1` [IMT, imatinib mesylate, reference compound] here?
**A.** active

**Q.** And the “Inhibition of BACE1 enzymatic activity” value (BACE1)?
**A.** does not inhibit BACE1 enzymatic activity

**Q.** For `Cc1ccccc1Nc1nccc(-c2cncc(NC(=O)c3ccc(CN4CCN(C)CC4)cc3)c2)n1` [IMTi-1], which “Aβ38 levels relative to controls” value (N2a695 cells; 5 μM, N2a695 cells, ELISA) is on record?
**A.** boost levels of Aβ38 above controls

**Q.** And the “Reduction of Aβ40 levels compared with IMT” value (N2a695 cells; 10 µM, N2a695 cell supernatants, anti-Aβ40 ELISA)?
**A.** reduced Aβ40 levels more strongly than IMT

**Q.** And the “Activity in Aβ production assays” value (N2a695 cells; N2a695 cells)?
**A.** active

**Q.** And the IC50 (Abl1 kinase)?
**A.** 1170 nM

**Q.** And the “BACE and γ-secretase cleavage of APP, Aβ levels” value [1]?
**A.** lower BACE and γ-secretase cleavage of APP

Source: publication PMC11493595, “Stretching the structural envelope of imatinib to reduce β-amyloid production by modulating both β- and γ-secretase cleavages of APP” (Frontiers in Chemistry, 2024)
